Test results published in US6803386B2, “Prostacyclin derivative containing compositions and methods of using the same for the treatment of cancer” (United Therapeutics Corporation, priority 2002, dated 2004).

What was measured:
[1] = system: human amelanotic melanoma cell line (LOX); assay: Collagen degradation inhibition assay (fluorescent-labeled Type I collagen matrix seeded with LOX cells); assay type: cell-based; conditions: LOX cells on Type I collagen matrix, dosages 10^−12 to 10^−3 M, n=4
[2] = system: human amelanotic melanoma cell line (LOX); assay: Apoptosis assay (Vybrant Apoptosis Assay Kit #4, YO-PRO); assay type: cell-based; conditions: LOX cells, overnight incubation; dosages 10^−12 to 10^−3 M; n=4
Protocol: An apoptosis assay marketed as Vybrant Apoptosis Assay Kit #4 from Molecular Probes, Inc., was obtained for the test. […] The apoptosis assay was performed four times (n=4) for each test compound.

[3] = system: human amelanotic melanoma cell line (LOX)
Protocol: A live cell toxicity assay marketed as LIVE/DEAD Viability/Cytotoxicity Kit by Molecular Probes, Inc. of Eugene, Oreg., was obtained for the test. The assays were carried out in accordance with the manufacturers' instructions using the LOX cells. The LOX cells (10^4/well) were cultured and incubated in a carbon dioxide incubator at 37° C. overnight and then gently washed with PBS.
Calcein Am (2 μM), a fluorescent dye available from Molecular Probes, Inc. for staining live cells, was added to the LOX cells. The Calcein-stained LOX cells were incubated at room temperature for about an hour. […] A positive fluorescence signal from the assay indicates the presence of viable cells in the test sample with the strength of the signal being proportional to the number of viable cells present.
The live cell toxicity assay was carried out four times (n=4) for each test compound.

SMILES: CCCCC[C@@H](O)CC[C@H]1[C@H](O)CC2Cc3c(cccc3OCC(=O)O)C[C@@H]21 (stereo partly drawn) [compound of Formula II, 9-Deoxy-2′,9α-methano-3-oxa-4,5,6-trinor-3,7-(1′,3′-interphenylene)-13,14-dihydro-PGF1]
- IC50 ([1]; Homo sapiens): 10 nM
- dosage at which collagen degradation activity by LOX cells was inhibited (lowest effective dosage) [1]: 2.5 nM
- dosage at which a marked increase in the incidence of apoptosis was seen [2]: over 10^−4 M
- dosage at which cell toxicity / inhibited cell viability was exhibited [3]: over 10^−6 M
